Measured values reported in ChEMBL document CHEMBL1909046, “DrugMatrix in vitro pharmacology data”.

Assays:
[1] = target: T1, Estrogen receptor (Homo sapiens, UniProt P03372); conditions: sf9; further: in other assays of this panel Not Active means under 50% inhibition at 10 µM
T1 sequence (P03372 whole entry): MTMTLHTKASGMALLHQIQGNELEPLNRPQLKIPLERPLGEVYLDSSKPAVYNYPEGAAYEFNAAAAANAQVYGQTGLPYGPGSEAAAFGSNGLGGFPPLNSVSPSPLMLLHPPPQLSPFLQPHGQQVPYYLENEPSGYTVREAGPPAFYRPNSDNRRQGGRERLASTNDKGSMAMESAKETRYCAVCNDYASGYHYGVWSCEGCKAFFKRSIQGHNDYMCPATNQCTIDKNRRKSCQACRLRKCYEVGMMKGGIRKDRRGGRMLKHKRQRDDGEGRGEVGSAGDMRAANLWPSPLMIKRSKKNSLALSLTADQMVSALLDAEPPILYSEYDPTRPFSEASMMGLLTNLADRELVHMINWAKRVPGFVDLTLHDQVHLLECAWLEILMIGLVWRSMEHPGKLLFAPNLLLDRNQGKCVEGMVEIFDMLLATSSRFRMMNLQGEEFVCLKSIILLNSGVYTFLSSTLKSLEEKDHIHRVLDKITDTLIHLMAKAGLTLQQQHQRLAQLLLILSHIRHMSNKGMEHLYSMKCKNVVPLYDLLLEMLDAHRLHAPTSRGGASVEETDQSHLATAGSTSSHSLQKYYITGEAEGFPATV

[2] = DRUGMATRIX: GABAA, Muscimol, Central radioligand binding (ligand: [3H] Muscimol); type: cell membranes, Rattus norvegicus, Wistar, Brain, Membrane; conditions: Not Active = under 50% inhibition at 10 µM
[3] = target: Insulin receptor (Rattus norvegicus, UniProt P15127); type: cell membranes, Wistar, Liver, Membrane; further: in other assays of this panel Not Active means under 50% inhibition at 10 µM
[4] = DRUGMATRIX: GABAA, Chloride Channel, TBOB radioligand binding (ligand: [3H] TBOB); type: cell membranes, Rattus norvegicus, Wistar, Cerebral cortex, Membrane; conditions: Not Active = under 50% inhibition at 10 µM
[5] = target: Mu-type opioid receptor (Homo sapiens, UniProt P35372); assay: DRUGMATRIX: Opiate mu (OP3, MOP) radioligand binding (ligand: [3H] Diprenorphine); type: cell membranes, CHO-K1, Membrane; conditions: cho-k1; Not Active = under 50% inhibition at 10 µM
[6] = target: D(3) dopamine receptor (Homo sapiens, UniProt P35462); assay: DRUGMATRIX: Dopamine D3 radioligand binding (ligand: [3H] Spiperone); type: cell membranes, CHO, Membrane; conditions: cho
[7] = target: T2, Cytochrome P450 1A2 (Homo sapiens, UniProt P05177); conditions: bti-tn-5b1-4; further: in other assays of this panel Not Active means under 50% inhibition at 10 µM
T2 sequence (P05177 whole entry): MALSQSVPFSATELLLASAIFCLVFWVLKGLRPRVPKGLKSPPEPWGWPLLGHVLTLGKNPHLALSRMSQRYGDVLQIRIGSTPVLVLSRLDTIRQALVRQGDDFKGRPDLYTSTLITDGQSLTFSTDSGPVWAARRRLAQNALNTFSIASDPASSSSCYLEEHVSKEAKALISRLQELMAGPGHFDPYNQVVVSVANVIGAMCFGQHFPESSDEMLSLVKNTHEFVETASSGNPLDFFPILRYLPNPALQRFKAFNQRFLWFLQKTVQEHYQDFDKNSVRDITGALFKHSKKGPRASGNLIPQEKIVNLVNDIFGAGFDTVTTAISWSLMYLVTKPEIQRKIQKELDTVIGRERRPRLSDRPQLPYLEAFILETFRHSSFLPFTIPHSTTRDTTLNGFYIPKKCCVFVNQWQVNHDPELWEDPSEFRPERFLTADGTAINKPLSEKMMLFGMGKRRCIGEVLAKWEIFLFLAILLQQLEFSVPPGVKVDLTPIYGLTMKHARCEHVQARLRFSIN

Insulin receptor, sequence (P15127 27-759 limits assumed): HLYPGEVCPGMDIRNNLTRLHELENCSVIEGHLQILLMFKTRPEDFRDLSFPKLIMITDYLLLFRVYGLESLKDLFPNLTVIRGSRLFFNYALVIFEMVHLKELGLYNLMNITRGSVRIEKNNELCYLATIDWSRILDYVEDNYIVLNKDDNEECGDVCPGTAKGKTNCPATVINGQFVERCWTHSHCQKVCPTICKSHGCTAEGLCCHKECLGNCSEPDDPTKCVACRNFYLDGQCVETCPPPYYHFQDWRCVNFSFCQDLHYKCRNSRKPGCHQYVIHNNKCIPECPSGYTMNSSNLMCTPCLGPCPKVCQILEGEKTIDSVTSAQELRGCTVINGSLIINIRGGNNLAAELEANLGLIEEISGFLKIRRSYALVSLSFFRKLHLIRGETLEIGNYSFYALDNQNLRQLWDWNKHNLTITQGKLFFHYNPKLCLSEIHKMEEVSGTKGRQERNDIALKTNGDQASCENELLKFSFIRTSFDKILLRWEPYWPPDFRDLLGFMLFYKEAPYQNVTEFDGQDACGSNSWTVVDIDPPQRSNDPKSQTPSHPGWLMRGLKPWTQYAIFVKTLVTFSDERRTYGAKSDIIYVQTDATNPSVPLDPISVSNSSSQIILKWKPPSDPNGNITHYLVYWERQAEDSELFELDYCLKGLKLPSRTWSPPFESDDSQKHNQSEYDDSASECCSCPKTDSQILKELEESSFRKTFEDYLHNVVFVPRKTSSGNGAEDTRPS
Insulin receptor, sequence (P15127 764-1383 limits assumed): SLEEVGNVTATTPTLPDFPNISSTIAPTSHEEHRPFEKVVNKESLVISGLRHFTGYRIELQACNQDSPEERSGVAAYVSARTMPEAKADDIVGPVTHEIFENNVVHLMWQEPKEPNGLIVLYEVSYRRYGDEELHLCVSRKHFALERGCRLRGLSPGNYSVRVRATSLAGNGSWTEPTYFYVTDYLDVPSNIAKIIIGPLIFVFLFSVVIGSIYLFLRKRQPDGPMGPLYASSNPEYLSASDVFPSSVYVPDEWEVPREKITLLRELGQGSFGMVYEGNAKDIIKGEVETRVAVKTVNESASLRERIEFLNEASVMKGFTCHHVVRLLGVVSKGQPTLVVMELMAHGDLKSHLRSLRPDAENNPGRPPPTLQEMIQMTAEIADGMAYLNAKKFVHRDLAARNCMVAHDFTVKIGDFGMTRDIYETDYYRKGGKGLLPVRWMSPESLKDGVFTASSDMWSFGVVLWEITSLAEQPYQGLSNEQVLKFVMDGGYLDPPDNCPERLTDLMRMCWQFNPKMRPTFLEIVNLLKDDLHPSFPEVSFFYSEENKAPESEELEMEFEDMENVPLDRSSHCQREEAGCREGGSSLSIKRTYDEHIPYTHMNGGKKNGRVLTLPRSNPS
D(3) dopamine receptor, sequence (P35462 whole entry): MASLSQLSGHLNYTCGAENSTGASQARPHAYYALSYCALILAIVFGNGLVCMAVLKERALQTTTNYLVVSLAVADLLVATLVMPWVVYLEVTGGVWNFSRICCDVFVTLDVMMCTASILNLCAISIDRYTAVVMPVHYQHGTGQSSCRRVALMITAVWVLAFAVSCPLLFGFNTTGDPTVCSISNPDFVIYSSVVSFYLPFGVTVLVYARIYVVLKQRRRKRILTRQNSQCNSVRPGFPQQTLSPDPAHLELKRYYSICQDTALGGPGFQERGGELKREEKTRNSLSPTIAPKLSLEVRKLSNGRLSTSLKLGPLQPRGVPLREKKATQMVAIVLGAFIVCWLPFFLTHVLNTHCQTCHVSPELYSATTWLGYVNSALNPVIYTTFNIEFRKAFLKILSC
Mu-type opioid receptor, sequence (P35372 whole entry): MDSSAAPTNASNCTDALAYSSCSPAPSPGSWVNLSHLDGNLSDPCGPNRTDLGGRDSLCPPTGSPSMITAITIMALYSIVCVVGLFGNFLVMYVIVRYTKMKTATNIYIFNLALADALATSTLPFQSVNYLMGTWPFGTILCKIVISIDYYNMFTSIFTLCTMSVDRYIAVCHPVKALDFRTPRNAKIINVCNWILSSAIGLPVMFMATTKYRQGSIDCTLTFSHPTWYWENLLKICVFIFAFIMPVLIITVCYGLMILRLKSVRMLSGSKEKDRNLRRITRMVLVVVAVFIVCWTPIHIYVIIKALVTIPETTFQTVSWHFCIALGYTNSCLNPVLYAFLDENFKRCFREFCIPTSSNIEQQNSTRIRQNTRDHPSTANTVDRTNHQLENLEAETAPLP

CC(=O)O[C@]1(C(C)=O)CC[C@H]2[C@@H]3C=C(C)C4=CC(=O)CC[C@]4(C)[C@H]3CC[C@@]21C [MEGESTROL ACETATE]
Not Active: IC50 [1] | IC50 [2] | Ki [2] | IC50 [3] | IC50 [4] | Ki [4] | IC50 [5] | IC50 [6] | IC50 [7] | Ki [7]

COc1ccccc1OCC(O)COC(N)=O (stereo not given) [METHOCARBAMOL]
Not Active: IC50 [1] | IC50 [2] | Ki [2] | IC50 [3] | IC50 [4] | Ki [4] | IC50 [5] | IC50 [6] | IC50 [7] | Ki [7]

CN(Cc1cnc2nc(N)nc(N)c2n1)c1ccc(C(=O)N[C@@H](CCC(=O)O)C(=O)O)cc1 [METHOTREXATE]
Not Active: IC50 [1] | IC50 [2] | Ki [2] | IC50 [3] | IC50 [4] | Ki [4] | IC50 [5] | IC50 [6] | IC50 [7] | Ki [7]

COC(=O)c1ccccc1O [METHYL SALICYLATE]
Not Active: IC50 [1] | IC50 [2] | Ki [2] | IC50 [3] | IC50 [4] | Ki [4] | IC50 [5] | IC50 [6] | IC50 [7] | Ki [7]

C[C@]12C/C(=C/O)C(=O)C[C@@H]1CC[C@@H]1[C@@H]2CC[C@@]2(C)[C@H]1CC[C@]2(C)O [OXYMETHOLONE]
Not Active: IC50 [1] | IC50 [2] | Ki [2] | IC50 [3] | IC50 [4] | Ki [4] | IC50 [5] | IC50 [6] | IC50 [7] | Ki [7]

CC(C)(CO)C(O)C(=O)NCCCO (stereo not given) [PANTHENOL]
Not Active: IC50 [1] | IC50 [2] | Ki [2] | IC50 [3] | IC50 [4] | Ki [4] | IC50 [5] | IC50 [6] | IC50 [7] | Ki [7]

CCCCC1C(=O)N(c2ccccc2)N(c2ccccc2)C1=O [PHENYLBUTAZONE]
Not Active: IC50 [1] | IC50 [2] | Ki [2] | IC50 [3] | IC50 [4] | Ki [4] | IC50 [5] | IC50 [6] | IC50 [7] | Ki [7]

Cc1cccc(Nc2cc(Cl)nc(SCC(=O)O)n2)c1C [PIRINIXIC ACID]
Not Active: IC50 [1] | IC50 [2] | Ki [2] | IC50 [3] | IC50 [4] | Ki [4] | IC50 [5] | IC50 [6] | IC50 [7] | Ki [7]

CC[C@H](C)C(=O)O[C@H]1C[C@H](O)C=C2C=C[C@H](C)[C@H](CC[C@@H](O)C[C@@H](O)CC(=O)O)[C@H]21 [PRAVASTATIN]
Not Active: IC50 [1] | IC50 [2] | Ki [2] | IC50 [3] | IC50 [4] | Ki [4] | IC50 [5] | IC50 [6] | IC50 [7] | Ki [7]
